# Results: US20260207604A1, “COMPOUND AND USE THEREOF” (ONQUALITY PHARMACEUTICALS CHINA LTD., priority 2022, published 2026)
# Key:
# CDK9/cyclin T = CDK9/cyclin T (Homo sapiens, UniProt P50750); experiment: KinaseProfile radiometric protein kinase assay, CDK9/cyclin T; format: biochemical
# Procedure: (§1) The KinaseProfile radiometric protein kinase assay was used to evaluate the inhibitory activity of the compounds against CDK2/cyclin E, CDK4/cyclin D, CDK6/cyclin D, CDK7/cyclin H and CDK9/cyclin T.
# (§2) The compounds were prepared in 100% DMSO at a final 50× stock concentration. The working stock solution was added as the first component to the assay wells. CDK2/cyclin E, CDK4/cyclin D, CDK6/cyclin D, CDK7/cyclin H, and CDK9/cyclin T were added in their respective kinase buffers: (CDK4: 8 mM MOPS pH 7.0, 0.2 mM EDTA, 0.03% BSA, 0.03% Tween 20, 20 mM DTT, and 0.2 mg/ml Rb fragment, 10 mM Magnesium acetate; CDK2, CDK6: 8 mM MOPS pH 7.0, 0.2 mM EDTA, 0.1 mg/mL histone H1, 10 mM Magnesium acetate; CDK7: 8 mM MOPS pH 7.0, 0.2 mM EDTA, 500 μM peptide, 10 mM Magnesium acetate; CDK9: 8 mM MOPS pH 7.0, 0.2 mM EDTA, 100 μM […], 10 mM Magnesium acetate) and [γ-^33 P-ATP] was included in the reaction mixture. The reaction was initiated by the addition of the Mg/ATP mixture and incubated at room temperature for 40 minutes. The reaction was terminated by the addition of 0.5% phosphoric acid. Then, 10 μL of the reaction mixture was spotted onto P30 filter pads, washed four times (1 minute each) with 0.425% phosphoric acid, followed by a single wash with methanol. The pads were then dried and counted. The data were recorded, inhibition rates were calculated, and IC50 values were determined accordingly. Table 2 summarizes the in vitro enzymatic inhibitory activity of the compounds of the present application.
# [1] = tested on: Irinotecan-induced constipation model; experiment: Irinotecan-induced constipation model; format: in vivo, Sprague-Dawley rats; conditions: irinotecan 260 mg/kg once a day, 1 day, rats
# From the text: Sprague-Dawley rats (180-200 g, 7-8 weeks old, Jihui) were acclimated for 7 days and randomly divided into three groups: control group, irinotecan group, and CDK inhibitor group, with 10 rats per group. The control group received the same vehicle orally as the CDK inhibitor group, followed by an injection of the same vehicle as the irinotecan group; the irinotecan group received the same oral vehicle as the CDK inhibitor group, followed by an injection of irinotecan; the CDK inhibitor group received the CDK inhibitor orally, followed by an injection of irinotecan.
# From Day 2 to Day 7, the degree of constipation was assessed for each rat based on the following score:
# Constipation assessment: Feces excreted within a 3-hour period were collected and evaluated for morphology and weight using an electronic balance. Stool reduction rate was calculated according to the method of Ji Eun Kim (Lab Anim Res. 2016 December; 32(4): 231-240). Stool reduction rate (%)=(Control group−Irinotecan or CDK inhibitor group)/Control group×100%.
# The constipation relief rate of the CDK inhibitor was calculated as follows: Relief rate (%)=([…])/Irinotecan group stool reduction rate×100%.
# [2] = tested on: Irinotecan-induced diarrhea model; experiment: Irinotecan-induced diarrhea model; format: in vivo, Balb/c mice; conditions: irinotecan 230 mg/kg once a day, 1 day, mice
# From the text: Irinotecan-induced diarrhea and/or constipation models were employed as additional in vivo experimental models to evaluate the activity of the compounds of the present application.
# Balb/c mice (20-25 g, 7-8 weeks old, Jihui) were acclimated for one week and then randomly assigned to 3 groups (n=10 per group): control group, irinotecan group, and CDK inhibitor group. Control group: received the same vehicle as the CDK inhibitor group by oral gavage, followed by injection of the same vehicle as the irinotecan group; irinotecan group: received the same vehicle by oral gavage as the CDK inhibitor group, followed by injection of irinotecan; CDK inhibitor group: received oral administration of the CDK inhibitor, followed by injection of irinotecan.
# In the irinotecan group, approximately 6 to 9 out of 10 mice developed diarrhea. From Day 1 to Day 7, the severity of diarrhea in each mouse was evaluated using the following scoring criteria:
# The diarrhea scoring system was based on the method by Akinobu Kurita (Cancer Chemother Pharmacol 2000; 46:211-20), Grade 0: normal stool; Grade 1: mild diarrhea, slightly soft stool and wet stool; Grade 2: moderate diarrhea, loose stool with slight perianal staining; Grade 3: severe diarrhea, loose watery stool with severe perianal staining. Calculate the diarrhea Relief rate of compound treatment. Relief rate (%)=(diarrhea score of irinotecan group−diarrhea score of CDK inhibitor group)/diarrhea score of irinotecan group×100%.
# CDK6/cyclin D = CDK6/cyclin D (Homo sapiens, UniProt Q00534); experiment: KinaseProfile radiometric protein kinase assay, CDK6/cyclin D; format: biochemical
# Procedure: as §1, §2
# [3] = Single-dose intravenous and oral pharmacokinetic study in mice; format: in vivo, Balb/c mice
# Procedure: Twenty-seven male Balb/c mice were randomly divided into 3 groups, 9 mice in each group. Group 1: mice received an intravenous (IV) dose of Compound 1 at 5 mg/kg with a dosing volume of 5 mL/kg. Blood samples were collected at 0.083, 0.25, 0.5, 1, 2, 4, 6, 8, and 24 hours post-dose using a staggered sampling method. Group 2: mice received an oral (gavage) dose of Compound 1 at 50 mg/kg with a dosing volume of 10 mL/kg. Blood samples were collected at 0.25, 0.5, 1, 2, 4, 6, 8, and 24 hours post-dose using a staggered sampling method. Group 3: mice received an oral (gavage) dose of palbociclib at 50 mg/kg with a dosing volume of 10 mL/kg. Blood samples were collected at 1, 3, 4, 6, 8, 10, 12, and 24 hours post-dose using a staggered sampling method. For each group, 3 samples were collected at each time point. Plasma was separated by centrifugation and stored at −70° C. The concentrations of Compound 1 or palbociclib in plasma were measured using LC-MS/MS.
# [4] = 50 mg/kg oral, 4 hours before irinotecan and 8 hours after irinotecan
# [5] = 50 mg/kg oral, 6 hours before irinotecan and 6 hours after irinotecan
# [6] = 5 mg/kg oral, 4 hours before and 8 hours after irinotecan
# [7] = 50 mg/kg oral, 4 hours before and 8 hours after irinotecan
# [8] = 100 mg/kg oral, 6 hours before and 6 hours after irinotecan
# [9] = 5 mg/kg oral, 4 hours before irinotecan and 8 hours after irinotecan
# [10] = 25 mg/kg oral, 6 hours before irinotecan and 6 hours after irinotecan
# [11] = 50 mg/kg oral, 8 hours before irinotecan and 4 hours after irinotecan
# [12] = 100 mg/kg oral, 4 hours before irinotecan and 8 hours after irinotecan
# [13] = 100 mg/kg oral, 10 hours before irinotecan and 2 hours after irinotecan
# [14] = 25 mg/kg oral, 6 hours before and 6 hours after irinotecan
# [15] = 25 mg/kg oral, 4 hours before irinotecan and 8 hours after irinotecan
# [16] = 100 mg/kg oral, 6 hours before irinotecan and 6 hours after irinotecan
# [17] = mouse, male Balb/c mice, IV 5 mg/kg, plasma
# [18] = mouse, male Balb/c mice, PO 50 mg/kg, plasma
# [19] = 10 mg/kg oral, 4 hours before irinotecan and 8 hours after irinotecan
# [20] = 25 mg/kg oral, 4 hours before and 8 hours after irinotecan
# [21] = 100 mg/kg oral, 12 hours before irinotecan
# Chain of CDK9/cyclin T (P50750 whole entry): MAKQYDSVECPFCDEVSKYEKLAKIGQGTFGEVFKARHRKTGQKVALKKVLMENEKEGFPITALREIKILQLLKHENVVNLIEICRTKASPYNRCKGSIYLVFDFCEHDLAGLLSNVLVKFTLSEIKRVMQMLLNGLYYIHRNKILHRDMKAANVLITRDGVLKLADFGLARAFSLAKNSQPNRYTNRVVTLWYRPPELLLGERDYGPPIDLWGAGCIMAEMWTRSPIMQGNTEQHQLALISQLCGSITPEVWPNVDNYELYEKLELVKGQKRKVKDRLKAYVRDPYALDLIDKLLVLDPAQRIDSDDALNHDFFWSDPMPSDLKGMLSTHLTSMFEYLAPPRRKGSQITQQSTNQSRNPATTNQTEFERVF
# Chain of CDK9/cyclin T (O60563 whole entry partner): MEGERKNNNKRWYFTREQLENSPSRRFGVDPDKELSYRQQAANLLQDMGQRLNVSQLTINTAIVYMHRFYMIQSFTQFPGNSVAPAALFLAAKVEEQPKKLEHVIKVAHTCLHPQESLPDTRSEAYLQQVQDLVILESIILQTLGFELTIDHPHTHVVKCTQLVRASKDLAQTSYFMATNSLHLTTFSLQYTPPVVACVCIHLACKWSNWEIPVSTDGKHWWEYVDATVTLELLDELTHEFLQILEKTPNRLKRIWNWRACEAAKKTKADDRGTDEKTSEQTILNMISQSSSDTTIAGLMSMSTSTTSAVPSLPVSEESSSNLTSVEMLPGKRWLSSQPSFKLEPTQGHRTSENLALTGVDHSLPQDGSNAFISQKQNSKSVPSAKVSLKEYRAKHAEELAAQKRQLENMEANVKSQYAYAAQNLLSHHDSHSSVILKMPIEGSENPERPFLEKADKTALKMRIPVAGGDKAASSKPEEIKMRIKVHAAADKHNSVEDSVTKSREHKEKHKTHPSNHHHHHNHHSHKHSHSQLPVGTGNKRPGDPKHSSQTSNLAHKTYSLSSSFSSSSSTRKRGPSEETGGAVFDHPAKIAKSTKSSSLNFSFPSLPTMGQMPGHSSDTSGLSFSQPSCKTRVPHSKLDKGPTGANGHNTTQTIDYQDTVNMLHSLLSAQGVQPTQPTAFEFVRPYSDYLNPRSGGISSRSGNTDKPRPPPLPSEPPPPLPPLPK
# Chain of CDK6/cyclin D (Q00534 whole entry): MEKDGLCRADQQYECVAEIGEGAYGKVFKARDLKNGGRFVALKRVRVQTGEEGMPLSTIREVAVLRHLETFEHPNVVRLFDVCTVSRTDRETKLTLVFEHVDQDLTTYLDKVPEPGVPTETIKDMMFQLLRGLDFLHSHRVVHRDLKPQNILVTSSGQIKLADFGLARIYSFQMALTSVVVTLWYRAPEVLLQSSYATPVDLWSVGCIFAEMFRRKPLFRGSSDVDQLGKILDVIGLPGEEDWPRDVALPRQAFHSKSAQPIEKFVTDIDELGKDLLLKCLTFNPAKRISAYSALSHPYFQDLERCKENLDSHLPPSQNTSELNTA
# Chain of CDK6/cyclin D (P30281 whole entry partner): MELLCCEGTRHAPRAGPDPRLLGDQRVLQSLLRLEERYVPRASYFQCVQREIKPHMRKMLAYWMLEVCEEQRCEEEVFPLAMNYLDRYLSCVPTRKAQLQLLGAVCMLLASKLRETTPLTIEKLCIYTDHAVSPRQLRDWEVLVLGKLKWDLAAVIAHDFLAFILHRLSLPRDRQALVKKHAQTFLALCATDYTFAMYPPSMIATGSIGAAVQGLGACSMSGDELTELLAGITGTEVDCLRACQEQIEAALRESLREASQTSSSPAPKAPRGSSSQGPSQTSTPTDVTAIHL
Compound,IC50 (CDK9/cyclin T),"constipation relief rate [1, 4]","constipation relief rate [1, 5]","diarrhea relief rate [2, 6]","diarrhea relief rate [2, 7]","diarrhea relief rate [2, 8]",IC50 (CDK6/cyclin D),"constipation relief rate [1, 9]","constipation relief rate [1, 10]","constipation relief rate [1, 12]","diarrhea relief rate [2, 14]","diarrhea relief rate [2, 11]","constipation relief rate [1, 15]","constipation relief rate [1, 16]","constipation relief rate [1, 19]","diarrhea relief rate [2, 20]","diarrhea relief rate [2, 21]",also measured
CC(=O)c1c(C)c2cnc(Nc3ccc(N4CCN(S(=O)(=O)NCC(C)N)CC4)cn3)nc2n(C2CCCC2)c1=O (centres unmarked) [Compound 3],> 3000 nM,60%,70%,25%,70%,50%,< 100 nM,–,–,–,–,–,–,–,–,–,–,"constipation relief rate ([1]; 25 mg/kg oral, 8 hours before irinotecan and 4 hours after irinotecan): 50%; constipation relief rate ([1]; 25 mg/kg oral, 12 hours before irinotecan and 0 hours after irinotecan): 30%; diarrhea relief rate ([2]; 25 mg/kg oral, 10 hours before and 2 hours after irinotecan): 60%"
CC(=O)c1c(C)c2cnc(Nc3ccc(N4CCN(S(=O)(=O)NCC(C)CN)CC4)cn3)nc2n(C2CCCC2)c1=O (centres unmarked) [Compound 5],> 3000 nM,80%,–,25%,–,–,< 50 nM,25%,40%,50%,50%,50%,–,–,–,–,–,"constipation relief rate [1, 11]: 60%; constipation relief rate [1, 13]: 40%; diarrhea relief rate [2, 13]: 35%"
CC(=O)c1c(C)c2c(n(C3CCCC3)c1=O)=NC(Nc1ccc(N3CCN(S(=O)(=O)NCCN)CC3)cn1)NC=2 (centres unmarked) [Compound 1],> 1000 nM,–,50%,30%,37.5%,20%,< 50 nM,–,–,40%,50%,–,75%,40%,–,–,–,"constipation relief rate ([1]; 2.5 mg/kg oral, 4 hours before irinotecan and 8 hours after irinotecan): 20%; constipation relief rate ([1]; 5 mg/kg oral, 6 hours before irinotecan and 6 hours after irinotecan): 30%; diarrhea relief rate ([2]; 10 mg/kg oral, 6 hours before and 6 hours after irinotecan): 33.3%; diarrhea relief rate ([2]; 100 mg/kg oral, 4 hours before and 8 hours after irinotecan): 30%; F ([3]; male Balb/c mice, PO 50 mg/kg vs IV 5 mg/kg): 0.6%; plasma concentration following oral administration compared with palbociclib ([3]; mice, PO 50 mg/kg, in words): significantly lower than that of palbociclib; AUC(0-t) [3, 17]: 670 ng·h/mL; clearance [3, 17]: 119 mL/min/kg; half-life [3, 17]: 2.69 h; Vd ([3]; mouse, male Balb/c mice, IV 5 mg/kg, plasma, read-out: Vdss): 11 L/kg; AUC(0-t) [3, 18]: 39.2 ng·h/mL; Cmax [3, 18]: 21 ng/mL; Tmax [3, 18]: 1 h"
CC(=O)c1c(C)c2cnc(Nc3ccc(N4CCN(S(=O)(=O)NCC(C)(C)CN)CC4)cn3)nc2n(C2CCCC2)c1=O [Compound 6],> 1000 nM,–,75%,–,–,–,< 100 nM,–,60%,–,60%,–,75%,–,40%,85%,40%,"constipation relief rate ([1]; 150 mg/kg oral, 12 hours before irinotecan): 25%; diarrhea relief rate ([2]; 10 mg/kg oral, 4 hours before and 8 hours after irinotecan): 50%"
CC(=O)c1c(C)c2cnc(Nc3ccc(N4CCN(S(=O)(=O)NCCCN)CC4)cn3)nc2n(C2CCCC2)c1=O [Compound 4],> 3000 nM,–,70%,–,60%,–,< 50 nM,–,50%,–,–,–,–,–,40%,–,–,"constipation relief rate ([1]; 100 mg/kg oral, 8 hours before irinotecan and 4 hours after irinotecan): 40%; constipation relief rate [1, 21]: 30%; diarrhea relief rate ([2]; 25 mg/kg oral, 2 hours before and 10 hours after irinotecan): 30%; diarrhea relief rate ([2]; 50 mg/kg oral, 6 hours before and 6 hours after irinotecan): 60%; diarrhea relief rate ([2]; 150 mg/kg oral, 10 hours before irinotecan): 45%"
CC(=O)c1c(C)c2cnc(Nc3ccc(N4CCN(S(=O)(=O)NCC(C)(C)N)CC4)cn3)nc2n(C2CCCC2)c1=O [Compound 2],> 1000 nM,80%,–,–,–,–,< 50 nM,25%,–,–,60%,75%,–,80%,–,70%,50%,"constipation relief rate ([1]; 150 mg/kg oral, 6 hours before irinotecan and 6 hours after irinotecan): 60%"
